Reference: patent publication US5998580A, “Photosensitive caged macromolecules” (priority 1995, dated 1999)
Where no end group is shown, it is not given here. The star is where a group is joined. α‑carboxy 2‑nitrobenzyl = O=C(O)C(c1ccccc1[N+](=O)[O-])*

Experiments:
[1] = tested on: toad stomach smooth muscle cells; test: rate of shortening of single smooth muscle cells (calcium-mediated contraction); assay type: cell-based; conditions: 200 μM; after photolysis versus without photolysis (FIG. 5)
Description: The in vivo effects of 1-CAG-RS-20 (200 μM) on the rate of shortening of single smooth muscle cells both before and after UV exposure was performed essentially as described in Itoh et al. (Nature 338: 164-67, 1989). Images of the cells were recorded using phase contrast optics and measurements of cell length were carried out as described by Itoh et al., supra. An interactive computer analysis program was used to measure cell length at successive intervals after the onset of cell membrane depolarization and subsequent increase in cytoplasmic Ca^2+ concentration that normally triggers contraction.

calmodulin = molecular target: T1, calmodulin (Homo sapiens, UniProt P0DP23); test: binding to calmodulin agarose column before and after photolysis
T1 construct: purchased Sigma Chemical Co
Description: The 1-CAG-RS-20 was evaluated for its ability to bind a calmodulin agarose column before and after photolysis. This experiment was carried out as follows. 5 mls of calmodulin agarose (Sigma Chemical Co.) was poured into a 1 cm×10 cm glass column and equilibrated with 50 mM Tris pH 7.5, 1 mM CaEGTA, pCa 4.5 (where pCa=-log free […]. 100 nmoles 1CAGRS-20 in 1 ml of the same solution was loaded onto the column and eluted with the same solution while 14×1.5 ml fractions were collected. The elutant was then changed to 50 mM Tris pH 7.5, 1 mM EGTA, pCa 9 and 14×1.5 ml additional fractions were collected. Each fraction was analyzed for peptide by UV absorbance at 272 nm. A second 100 nmole aliquot of 1-CAG-RS-20 was irradiated by the standard photolysis protocol (see below) and loaded onto the calmodulin agarose column after extensive washing and reequilibration in the original pCa 4.5 solution.
(§1) The standard photolysis protocol involves exposure of caged peptide (0.1 to 1 ml; 0.1 mM to 1 mM in 50 mM Tris pH 7.5) in a quartz cuvette (1 cm path length) to the beam of a continuous 75 watt Xenon arc lamp that is filtered through a 300-350 nm band pass filter (UG-11 filter). This standard in vitro photolysis protocol was carried out for 30 minutes at room temperature.

[2] = tested on: Smooth muscle myosin light chain kinase (MLCK); test: inhibition of smooth muscle myosin light chain kinase (MLCK) activity, 32P incorporation into light chain; assay type: biochemical; conditions: before photolysis; 100 nM calmodulin
Description: as §1
Smooth muscle myosin light chain kinase (MLCK) (0.5 μg/ml) was incubated with various concentrations of synthetic caged peptide (e.g., 1-CAG-RS-20 and 9-NPG-RS-20) in the presence of 100 nM calmodulin, 0.1 mM CaCl2, 100 mM KCL, 0.2 mg/ml myosin regulatory light chain, 1 mM MgCl2, and 30 mM Tris-HCL (pH 7.5) at 25° C. for 5 minutes. 1-CAG-RS-20 and 9-NPG-RS-20 were photolyzed using the standard photolysis protocol (see above) and the uncaged peptide was purified away from by-products and caged peptides prior to the enzymatic assay using reverse phase HPLC. The phosphorylation reaction was started by adding 50 μM ^32 P-ATP. The incorporation of ^32 P into the light chain was measured by scintillation counter and the inhibitory effect of the peptide on myosin light chain kinase was determined.

[3] = tested on: single smooth muscle cells; test: calcium-dependent enhancement of calcium (inward) current after repetitive depolarization in single smooth muscle cells; assay type: cell-based; conditions: cell injected with peptide
Description: The in vivo effects of 1-CAG-RS-20 on calcium-dependent enhancement of calcium current in smooth muscle were evaluated according to the methods described by McCarron et al. (Nature 357: 74-77). Photolysis of 1-CAG-RS-20 was accomplished by selectively exposing cells to a beam of UV irradiation using a light source fitted with a controllable shutter. In addition, experiments were carried out by recording phase contrast images in the far red portion of the spectrum to monitor the effects of 1-CAG-RS-20 on the contractile responses of the cells to Ca^2+ influx resulting from depolarization. Data was analyzed according to the methods described in Itoh et al. (Nature 338: 164-167, 1989).
Shown in these panels (FIG. 3) are the inward currents resulting from depolarization both before and after the train of depolarizing pulses. The trace labelled #1 was obtained before the train and that after the train is labelled #2 (FIG. 3C).

In the case of “1-CAG-RS-20: RS-20 caged analog containing caged tyrosine (α-carboxy 2-nitrobenzyl) at position 5 (ARRKY(α‑carboxy 2‑nitrobenzyl)QKTGHAVRAIGRLSS)”, the “rate of cell shortening” value [1] is reported as “shortened more slowly”, the “binding to calmodulin agarose column” value (calmodulin; before photolysis, in the presence of Ca2+ (pCa 4.5), 100 nmoles loaded) is reported as “does not bind appreciably” and the “binding to calmodulin agarose column” value (calmodulin; following photolysis, in the presence of Ca2+, binding reversed by EGTA) is reported as “binds strongly”. The “inhibition of MLCK activity” value [2] was “failed to significantly inhibit MLCK activity”, the “enhancement of inward current following a train of depolarizing stimuli” value ([3]; following photolysis (FIG. 3D)) was “blocked” and the “enhancement of inward current following a train of depolarizing stimuli” value ([3]; prior to exposure to ultraviolet light (FIG. 3C)) was “the inward current was enhanced”.
